Assay results reported in PubChem BioAssay AID330 (DTP/NCI, 2004).
Several values for one entry are separate records, joined by “and”; a condition that tells them apart may be missing. Identical values can stand only once. Toxic doses and inconclusive results are not listed.

Test system: P388 leukemia ip, CD2F1 mice, survival T/C
Experiment: NCI In Vivo Anticancer Drug Screen. Data for tumor model P388 Leukemia (intraperitoneal) in CD2F1 (CDF1) mice
Details: endpoint: median survival time, higher = longer survival
Method in brief: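 Mice carrying the transplanted tumor received test compound or vehicle. Survival was recorded in each group, and the value is the treated-group measurement divided by that of the vehicle-treated control group.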

[1] = dose: 240.0 mg/kg/injection, schedule: Q01DX005 (ip), vehicle: saline with Tween-80
[2] = dose: 50.0 mg/kg/injection, schedule: Q01DX005 (ip), vehicle: saline with Tween-80
[3] = dose: 100.0 mg/kg/injection, schedule: Q01DX005 (ip), vehicle: saline with Tween-80
[4] = dose: 200.0 mg/kg/injection, schedule: Q01DX005 (ip), vehicle: saline with Tween-80
[5] = dose: 60.0 mg/kg/injection, schedule: Q01DX005 (ip), vehicle: saline with Tween-80
[6] = dose: 120.0 mg/kg/injection, schedule: Q01DX005 (ip), vehicle: saline with Tween-80

O=[N+]([O-])c1ccc(C2=Nc3ccccc3N=C(c3ccccc3O)C2)cc1
T/C (dose: 0.93 mg/kg/injection, schedule: Q01DX005 (ip), vehicle: saline with Tween-80): 100 % of control | T/C (dose: 1.87 mg/kg/injection, schedule: Q01DX005 (ip), vehicle: saline with Tween-80): 113 % of control | T/C (dose: 3.75 mg/kg/injection, schedule: Q01DX005 (ip), vehicle: saline with Tween-80): 91 % of control and 94 % of control | T/C (dose: 15.0 mg/kg/injection, schedule: Q01DX005 (ip), vehicle: saline with Tween-80): 91 % of control | T/C [1]: 90 % of control

CC1COC2(CC1OC(=O)/C=C/c1ccccc1)OC1CC(C(=O)OC3OC(C)C(O)C(O)C3OC3OC(C)C(O)C(O)C3O)CCC1C21CO1 (configuration not stated)
T/C (dose: 1.88 mg/kg/injection, schedule: Q01DX005 (ip), vehicle: saline + alcohol): 106 % of control | T/C (dose: 3.75 mg/kg/injection, schedule: Q01DX005 (ip), vehicle: saline + alcohol): 106 % of control | T/C (dose: 7.5 mg/kg/injection, schedule: Q01DX005 (ip), vehicle: saline + alcohol): 111 % of control and 118 % of control | T/C (dose: 15.0 mg/kg/injection, schedule: Q01DX005 (ip), vehicle: saline + alcohol): 118 % of control | T/C (dose: 60.0 mg/kg/injection, schedule: Q01DX005 (ip), vehicle: saline + alcohol): 153 % of control

Cc1cc(NCCCCNCCCNc2cc(C)nc3cc([N+](=O)[O-])ccc23)c2ccc([N+](=O)[O-])cc2n1
T/C (dose: 12.5 mg/kg/injection, schedule: Q01DX009 (ip), vehicle: other): 150 % of control

CC1=C(c2ccco2)C2(c3ccco3)C(C(=O)c3ccccc3)C2(C)C1=O (configuration not stated)
T/C [2]: 90 % of control | T/C [3]: 90 % of control | T/C [4]: 95 % of control

CCSC(=O)OCC(C)([N+](=O)[O-])[N+](=O)[O-]
T/C (dose: 100.0 mg/kg/injection, schedule: Q04DX003 (ip), vehicle: saline): 94 % of control | T/C (dose: 200.0 mg/kg/injection, schedule: Q04DX003 (ip), vehicle: saline): 94 % of control | T/C (dose: 400.0 mg/kg/injection, schedule: Q04DX003 (ip), vehicle: saline): 100 % of control

CC(=O)OC(C(=O)OC1C[C@]2(O)C(OC(=O)c3ccccc3)C3[C@@]4(OC(C)=O)CO[C@H]4C[C@@H](OC(C)=O)[C@]3(C)C(=O)[C@@H](OC(C)=O)C(=C1C)C2(C)C)C(NC(=O)c1ccccc1)c1ccccc1 (some centres not stated)
T/C (dose: 5.0 mg/kg/injection, schedule: Q01DX009 (ip), vehicle: Klucel (hydroxypropylcellulose) (HPC)): 99 % of control | T/C (dose: 10.0 mg/kg/injection, schedule: Q01DX009 (ip), vehicle: Klucel (hydroxypropylcellulose) (HPC)): 105 % of control | T/C (dose: 20.0 mg/kg/injection, schedule: Q01DX009 (ip), vehicle: Klucel (hydroxypropylcellulose) (HPC)): 100 % of control | T/C (dose: 40.0 mg/kg/injection, schedule: Q01DX009 (ip), vehicle: Klucel (hydroxypropylcellulose) (HPC)): 104 % of control

COc1cccc2c1C(=O)c1c(O)c3c(c(O)c1C2=O)C[C@@](O)(/C(C)=N\NC(=O)CO)C[C@@H]3OC1CC(N)C(O)C(C)O1 (some centres not stated)
T/C (dose: 0.29 mg/kg/injection, schedule: Q04DX003 (ip), vehicle: saline): 118 % of control | T/C (dose: 0.78 mg/kg/injection, schedule: Q01DX009 (ip), vehicle: water): 153 % of control | T/C (dose: 1.0 mg/kg/injection, schedule: Q01DX009 (ip), vehicle: saline): 152 % of control | T/C (dose: 1.0 mg/kg/injection, schedule: Q04DX003 (ip), vehicle: saline): 150 % of control | T/C (dose: 1.32 mg/kg/injection, schedule: Q04DX003 (ip), vehicle: saline): 150 % of control | T/C (dose: 1.5 mg/kg/injection, schedule: Q01DX009 (ip), vehicle: saline): 154 % of control | T/C (dose: 1.56 mg/kg/injection, schedule: Q01DX009 (ip), vehicle: water): 160 % of control | T/C (dose: 2.0 mg/kg/injection, schedule: Q01DX009 (ip), vehicle: water): 166 % of control | T/C (dose: 2.0 mg/kg/injection, schedule: Q04DX003 (ip), vehicle: saline): 154 % of control | T/C (dose: 2.25 mg/kg/injection, schedule: Q01DX009 (ip), vehicle: saline): 189 % of control | T/C (dose: 2.5 mg/kg/injection, schedule: Q04DX003 (ip), vehicle: water): 119 % of control | T/C (dose: 3.0 mg/kg/injection, schedule: Q04DX003 (ip), vehicle: saline): 177 % of control | T/C (dose: 3.13 mg/kg/injection, schedule: Q01DX009 (ip), vehicle: water): 180 % of control | T/C (dose: 4.0 mg/kg/injection, schedule: Q01DX009 (ip), vehicle: water): 192 % of control | T/C (dose: 5.0 mg/kg/injection, schedule: Q04DX003 (ip), vehicle: water): 119 % of control | T/C (dose: 6.25 mg/kg/injection, schedule: Q01DX009 (ip), vehicle: water): 108 % of control | T/C (dose: 40.0 mg/kg/injection, schedule: Q04DX003 (ip), vehicle: water): 90 % of control | T/C (dose: 80.0 mg/kg/injection, schedule: Q04DX003 (ip), vehicle: water): 90 % of control and 96 % of control

COC(=O)CCCC/C=C\CCCCCCC1C=CCC1 (configuration not stated)
T/C (dose: 100.0 mg/kg/injection, schedule: Q01DX001 (ip), vehicle: saline): 100 % of control | T/C (dose: 200.0 mg/kg/injection, schedule: Q01DX001 (ip), vehicle: saline): 101 % of control | T/C (dose: 400.0 mg/kg/injection, schedule: Q01DX001 (ip), vehicle: saline): 101 % of control

CC(C)(C)C1=CC(N2CCOCC2)(C(C)(C)C)C=C(C(C)(C)C)C1=O
T/C [2]: 94 % of control | T/C [3]: 103 % of control | T/C [4]: 94 % of control

CC(C)(C)NC(=O)C(Cl)Cl
T/C (dose: 50.0 mg/kg/injection, schedule: Q01DX001 (ip), vehicle: saline with Tween-80): 100 % of control | T/C (dose: 100.0 mg/kg/injection, schedule: Q01DX001 (ip), vehicle: saline with Tween-80): 100 % of control | T/C (dose: 200.0 mg/kg/injection, schedule: Q01DX001 (ip), vehicle: saline with Tween-80): 95 % of control

O=C(O)C1OC(N(O)c2ccc(Oc3ccc(Cl)cc3)cc2)C(O)C(O)C1O (configuration not stated)
T/C [5]: 106 % of control | T/C [6]: 100 % of control | T/C [1]: 100 % of control

CSc1nc2nc[nH]c2c(=O)[nH]1
T/C (dose: 12.5 mg/kg/injection, schedule: Q01DX005 (ip), vehicle: saline with Tween-80): 100 % of control | T/C (dose: 25.0 mg/kg/injection, schedule: Q01DX005 (ip), vehicle: saline with Tween-80): 100 % of control | T/C [2]: 101 % of control and 105 % of control | T/C [3]: 101 % of control | T/C [4]: 104 % of control

C1N2CN3CN1CN(C2)C3 (tested in a mixture with another compound)
T/C (dose: 50.0 mg/kg/injection, schedule: Q01DX009 (ip), vehicle: saline): 107 % of control | T/C (dose: 100.0 mg/kg/injection, schedule: Q01DX009 (ip), vehicle: saline): 101 % of control | T/C (dose: 200.0 mg/kg/injection, schedule: Q01DX009 (ip), vehicle: saline): 107 % of control

COc1ccc(-c2nn(-c3ccccc3)cc2Oc2ccccc2O)cc1
T/C [5]: 104 % of control | T/C [6]: 102 % of control | T/C [1]: 96 % of control

O=C([S-])N1CCCCC1.O=C([S-])N1CCCCC1.[Ni+2]
T/C (dose: 12.5 mg/kg/injection, schedule: Q01DX009 (ip), vehicle: saline with Tween-80): 90 % of control | T/C (dose: 25.0 mg/kg/injection, schedule: Q01DX009 (ip), vehicle: saline with Tween-80): 100 % of control | T/C (dose: 50.0 mg/kg/injection, schedule: Q01DX009 (ip), vehicle: saline with Tween-80): 90 % of control

COc1ccc(C2c3cc(O)c(OC)cc3Oc3cc(OC)c(O)cc32)cc1
T/C (dose: 50.0 mg/kg/injection, schedule: Q01DX005 (ip), vehicle: Klucel (hydroxypropylcellulose) (HPC)): 87 % of control | T/C (dose: 100.0 mg/kg/injection, schedule: Q01DX005 (ip), vehicle: Klucel (hydroxypropylcellulose) (HPC)): 94 % of control | T/C (dose: 200.0 mg/kg/injection, schedule: Q01DX005 (ip), vehicle: Klucel (hydroxypropylcellulose) (HPC)): 96 % of control

O=C1CSC2=NCCN12
T/C (dose: 50.0 mg/kg/injection, schedule: Q01DX009 (ip), vehicle: suspension in saline): 101 % of control | T/C (dose: 100.0 mg/kg/injection, schedule: Q01DX009 (ip), vehicle: suspension in saline): 107 % of control | T/C (dose: 200.0 mg/kg/injection, schedule: Q01DX009 (ip), vehicle: suspension in saline): 115 % of control

NC(=O)C(CC(C(=O)O)c1ccccc1)c1ccccc1 (configuration not stated)
T/C (dose: 100.0 mg/kg/injection, schedule: Q01DX001 (ip), vehicle: Klucel (hydroxypropylcellulose) (HPC)): 99 % of control | T/C (dose: 200.0 mg/kg/injection, schedule: Q01DX001 (ip), vehicle: Klucel (hydroxypropylcellulose) (HPC)): 96 % of control | T/C (dose: 400.0 mg/kg/injection, schedule: Q01DX001 (ip), vehicle: Klucel (hydroxypropylcellulose) (HPC)): 97 % of control

C1CCC(C2CCCC[N-]2)[N-]C1.[Cl][Ru+2][Cl] (configuration not stated)
T/C (dose: 7.5 mg/kg/injection, schedule: Q01DX005 (ip), vehicle: saline): 103 % of control | T/C (dose: 15.0 mg/kg/injection, schedule: Q01DX005 (ip), vehicle: saline): 100 % of control | T/C (dose: 30.0 mg/kg/injection, schedule: Q01DX005 (ip), vehicle: saline): 103 % of control
